In patent US12534450B2, “Methods and compositions for targeting PD-L1” (Aligos Therapeutics, Inc., priority 2021, dated 2026):

How the values were obtained:
PD-1/PD-L1 interaction = assay: PD-1/PD-L1 NFAT Reporter Assay (co-culture of Jurkat T cells overexpressing PD-1 and PD-L1 expressing CHO cells); format: cell-based; conditions: co-culture 6 hrs at 37° C., NFAT-mediated luciferase activity
Description: Blocking the PD-1/PD-L1 interaction will release the inhibitory signal and results in TCR signaling and NFAT-mediated luciferase activity.
CHO cells expressing surface-bound anti-CD3 antibodies and PD-L1 were first seeded overnight and treated with the compounds. Jurkat cells overexpressing PD-1 and a luciferase construct under NFAT promoter were then immediately seeded on the monolayer of CHO cells. The co-culture was then incubated for 6 hrs at 37° C. Luciferase activity was assessed by adding the ONE-Glo reagent and measuring luminescence with a plate reader. EC50 values were determined from the fit of the dose-response curves.

PD-1/PD-L1 PPI = PD-1/PD-L1 PPI (Homo sapiens, UniProt Q9NZQ7); assay: PDL1/PD1 Binding Assay; conditions: PDL1-6×His 0.3 nM, PD1-Fc-Avi-Biotin 2.5 nM, Acceptor/Donor beads, Envision reader
Description: Compounds to be tested were serially diluted in DMSO, and further diluted in assay buffer (25 mM Hepes pH 7.4, 150 mM NaCl, 0.005% Tween 20, BSA 0.01%). Diluted compounds were added to the wells with final concentration of DMSO at 1%. PDL1-6×His protein was added to the wells, mixed well with compound. The plates were incubated for 30 min at room temperature. PD1-Fc-Avi-Biotin protein was added to the wells. Final concentration of PDL1 and PD1 protein is 0.3 nM and 2.5 nM, respectively. After a binding time of 30 min at room temperature, Anti-6×His Acceptor beads (final concentration 20 ug/ml) were added to the wells, and the incubation continued for 1 h. Streptavidin Donor beads (final concentration 20 ug/mL) were added at reduced light. The plates were sealed with foil and incubated in the dark for additional 1 h or overnight before reading on an Envision reader. The IC50 values were determined by fitting the curves using a four-parameter equation in Graphpad Prism 8.

PD-1/PD-L1 PPI, sequence (Q9NZQ7 19-238 limits assumed): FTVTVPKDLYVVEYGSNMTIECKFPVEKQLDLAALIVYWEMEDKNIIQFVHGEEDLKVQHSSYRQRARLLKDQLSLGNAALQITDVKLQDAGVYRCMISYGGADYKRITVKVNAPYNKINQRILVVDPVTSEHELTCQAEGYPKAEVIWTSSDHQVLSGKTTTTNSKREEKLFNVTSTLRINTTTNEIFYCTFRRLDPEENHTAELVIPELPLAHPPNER

| Structure (SMILES) | EC50 (PD-1/PD-L1 interaction; Homo sapiens, Jurkat, 6 h) [nM] | IC50 (PD-1/PD-L1 PPI) [nM] | EC50 (PD-1/PD-L1 interaction) [nM] |
| --- | --- | --- | --- |
| COCCOc1nc(-c2cccc(-c3cccc(NC(=O)c4cn(C)c(=O)n(C)c4=O)c3C)c2Cl)cc2c1[C@@H](NC[C@@H]1CCC(=O)N1)CC2 (single isomer, unassigned) [Compound A-115] | 10 to 100 | ≤ 10 |  |
| COCCOc1nc(-c2cccc(-c3cccc(NC(=O)c4cn(C)c(=O)n(C)c4=O)c3C)c2Cl)cc2c1[C@H](NC[C@@H]1CCC(=O)N1)CC2 (single isomer, unassigned) [Compound A-116] | 1000 to 10000 | ≤ 10 |  |
| COc1nc(-c2cccc(-c3cccc(NC(=O)c4cn(C)c(=O)n(C)c4=O)c3Cl)c2Cl)cc2c1[C@@H](N1CC3(CNC(=O)C3)C1)CC2 (single isomer, unassigned) [Compound A-129] | ≤ 10 | ≤ 10 |  |
| COc1nc(-c2cccc(-c3cccc(NC(=O)c4cn(C)c(=O)n(C)c4=O)c3Cl)c2Cl)cc2c1C(N1CC3(CNC(=O)C3)C1)CC2 (single isomer, unassigned) [Compound A-130] | 10 to 100 | ≤ 10 |  |
| COc1nc(-c2cccc(-c3cccc(NC(=O)c4cn(C)c(=O)n(C)c4=O)c3C)c2Cl)cc2c1[C@@H](N1CC3(CNC(=O)C3)C1)CC2 (single isomer, unassigned) [Compound A-131] |  | ≤ 10 | ≤ 10 |
| COc1nc(-c2cccc(-c3cccc(NC(=O)c4cn(C)c(=O)n(C)c4=O)c3C)c2Cl)cc2c1[C@@H](N1CC3(CNC(=O)C3)C1)CC2 (single isomer, unassigned) [Compound A-132] |  | ≤ 10 | 100 to 1000 |
| COc1nc(-c2cccc(-c3cccc(NC(=O)c4cn(C)c(=O)n(C)c4=O)c3Cl)c2Cl)cc2c1[C@@H](N1CC3(COCC(=O)N3)C1)CC2 (single isomer, unassigned) [Compound A-133] | 100 to 1000 | 10 to 100 |  |
| COc1nc(-c2cccc(-c3cccc(NC(=O)c4cn(C)c(=O)n(C)c4=O)c3Cl)c2Cl)cc2c1[C@H](N1CC3(COCC(=O)N3)C1)CC2 (single isomer, unassigned) [Compound A-134] | ≤ 10 | ≤ 10 |  |
| COc1nc(-c2cccc(-c3cccc(NC(=O)c4cn(C)c(=O)n(C)c4=O)c3Cl)c2Cl)cc2c1[C@@H](NC[C@@H]1CNC(=O)C1)CC2 (single isomer, unassigned) [Compound A-135] | 100 to 1000 | ≤ 10 |  |
| COc1nc(-c2cccc(-c3cccc(NC(=O)c4cn(C)c(=O)n(C)c4=O)c3Cl)c2Cl)cc2c1[C@H](NC[C@@H]1CNC(=O)C1)CC2 (single isomer, unassigned) [Compound A-136] | ≤ 10 | ≤ 10 |  |
| COc1nc(-c2cccc(-c3cccc(NC(=O)c4ccnn(C)c4=O)c3Cl)c2Cl)cc2c1C(N1CC(C(=O)O)C1)CC2 (single isomer, unassigned) [Compound J-1] | ≤ 10 | ≤ 10 |  |
| COc1nc(-c2cccc(-c3cccc(NC(=O)c4ccnn(C)c4=O)c3C)c2Cl)cc2c1[C@@H](N1CC(C(=O)O)C1)CC2 (single isomer, unassigned) [Compound J-2] | ≤ 10 | ≤ 10 |  |
| COc1nc(-c2cccc(-c3cccc(NC(=O)c4cn(C)c(=O)n(C)c4=O)c3Cl)c2Cl)cc2c1[C@@H](N1CC(C(=O)O)C1)CC2 (single isomer, unassigned) [Compound J-3] | ≤ 10 | ≤ 10 |  |
| COc1nc(-c2cccc(-c3cccc(NC(=O)c4cn(C)c(=O)n(C)c4=O)c3Cl)c2Cl)cc2c1[C@H](N1CC(C(=O)O)C1)CC2 (single isomer, unassigned) [Compound J-4] | 100 to 1000 | ≤ 10 |  |
| COc1nc(-c2cccc(-c3cccc(NC(=O)c4cn(C)c(=O)n(C)c4=O)c3C)c2Cl)cc2c1C(NC[C@@H]1CCC(=O)N1)C(F)C2 (single isomer, unassigned) [Compound K-1a] |  | ≤ 10 | 10 to 100 |

The next lines start with the values.

| EC50 (PD-1/PD-L1 interaction; Homo sapiens, Jurkat, 6 h) [nM] | IC50 (PD-1/PD-L1 PPI) [nM] | EC50 (PD-1/PD-L1 interaction) [nM] | Structure (SMILES) |
| --- | --- | --- | --- |
| ≤ 10 | ≤ 10 |  | COc1nc(-c2cccc(-c3cccc(NC(=O)c4nn(C)c(=O)n(C)c4=O)c3C)c2Cl)cc2c1[C@H](N[C@@H]1COC[C@H]1O)CC2 (single isomer, unassigned) [Compound A-102] |
| > 5000 | 10 to 100 |  | COc1nc(-c2cccc(-c3cccc(NC(=O)c4nn(C)c(=O)n(C)c4=O)c3C)c2C)cc2c1[C@@H](N[C@@H]1COC[C@H]1O)CC2 (single isomer, unassigned) [Compound A-103] |
| 10 to 100 | ≤ 10 |  | COc1nc(-c2cccc(-c3cccc(NC(=O)c4nn(C)c(=O)n(C)c4=O)c3C)c2C)cc2c1[C@H](N[C@@H]1COC[C@H]1O)CC2 (single isomer, unassigned) [Compound A-104] |
| 10 to 100 | 10 to 100 |  | COc1nc(-c2cccc(-c3cccc(NC(=O)c4cn(C)c(=O)n(C)c4=O)c3C)c2C)cc2c1[C@@H](N[C@@H]1COC[C@@H]1O)CC2 (single isomer, unassigned) [Compound A-105] |
| 100 to 1000 | ≤ 10 |  | COc1nc(-c2cccc(-c3cccc(NC(=O)c4cn(C)c(=O)n(C)c4=O)c3C)c2C)cc2c1[C@H](N[C@@H]1COC[C@@H]1O)CC2 (single isomer, unassigned) [Compound A-106] |
| ≤ 10 | ≤ 10 |  | COc1nc(-c2cccc(-c3cccc(NC(=O)c4nn(C)c(=O)n(C)c4=O)c3Cl)c2Cl)cc2c1[C@@H](N[C@@H]1COC[C@@H]1O)CC2 (single isomer, unassigned) [Compound A-107] |
| 100 to 1000 | ≤ 10 |  | COc1nc(-c2cccc(-c3cccc(NC(=O)c4nn(C)c(=O)n(C)c4=O)c3Cl)c2Cl)cc2c1[C@H](N[C@@H]1COC[C@@H]1O)CC2 (single isomer, unassigned) [Compound A-108] |
| ≤ 10 | ≤ 10 |  | COc1nc(-c2cccc(-c3cccc(NC(=O)c4nn(C)c(=O)n(C)c4=O)c3C)c2Cl)cc2c1[C@@H](N[C@@H]1COC[C@@H]1O)CC2 (single isomer, unassigned) [Compound A-109] |
| 100 to 1000 | ≤ 10 |  | COc1nc(-c2cccc(-c3cccc(NC(=O)c4nn(C)c(=O)n(C)c4=O)c3C)c2Cl)cc2c1[C@H](N[C@@H]1COC[C@@H]1O)CC2 (single isomer, unassigned) [Compound A-110] |
| 10 to 100 | ≤ 10 |  | COc1nc(-c2cccc(-c3cccc(NC(=O)c4nn(C)c(=O)n(C)c4=O)c3C)c2C)cc2c1[C@@H](N[C@@H]1COC[C@@H]1O)CC2 (single isomer, unassigned) [Compound A-111] |
| 1000 to 10000 | ≤ 10 |  | COc1nc(-c2cccc(-c3cccc(NC(=O)c4nn(C)c(=O)n(C)c4=O)c3C)c2C)cc2c1[C@H](N[C@@H]1COC[C@@H]1O)CC2 (single isomer, unassigned) [Compound A-112] |
| 1000 to 10000 | 10 to 100 |  | COc1nc(-c2cccc(-c3cccc(NC(=O)c4cn(C)c(=O)n(C)c4=O)c3C)c2Cl)cc2c1[C@@H](NC[C@H]1CCC(=O)N1)CC2 (single isomer, unassigned) [Compound A-113] |
| ≤ 10 | ≤ 10 |  | COc1nc(-c2cccc(-c3cccc(NC(=O)c4cn(C)c(=O)n(C)c4=O)c3C)c2Cl)cc2c1[C@H](NC[C@H]1CCC(=O)N1)CC2 (single isomer, unassigned) [Compound A-114] |
|  | ≤ 10 | > 5000 | COc1nc(-c2cccc(-c3cccc(NC(=O)c4cn(C)c(=O)n(C)c4=O)c3C)c2Cl)cc2c1C(NC[C@@H]1CCC(=O)N1)C(O)C2 (single isomer, unassigned) [Compound A-125] |
|  | ≤ 10 | 10 to 100 | COc1nc(-c2cccc(-c3cccc(NC(=O)c4cn(C)c(=O)n(C)c4=O)c3C)c2Cl)cc2c1C(NC[C@@H]1CCC(=O)N1)C(O)C2 (single isomer, unassigned) [Compound A-126] |
|  | ≤ 10 | 100 to 1000 | COc1nc(-c2cccc(-c3cccc(NC(=O)c4cn(C)c(=O)n(C)c4=O)c3C)c2Cl)cc2c1C(NC[C@@H]1CCC(=O)N1)C(O)C2 (single isomer, unassigned) [Compound A-127] |
|  | ≤ 10 | 100 to 1000 | COc1nc(-c2cccc(-c3cccc(NC(=O)c4cn(C)c(=O)n(C)c4=O)c3C)c2Cl)cc2c1C(NC[C@@H]1CCC(=O)N1)C(O)C2 (single isomer, unassigned) [Compound A-128] |
| 1000 to 10000 | ≤ 10 |  | COc1nc(-c2cccc(-c3cccc(NC(=O)c4cn(C)c(=O)n(C)c4=O)c3C)c2Cl)cc2c1[C@@H](NC[C@@H]1CNC(=O)C1)CC2 (single isomer, unassigned) [Compound A-137] |
|  | ≤ 10 | 100 to 1000 | COc1nc(-c2cccc(-c3cccc(NC(=O)c4cn(C)c(=O)n(C)c4=O)c3C)c2Cl)cc2c1C(NC[C@@H]1CCC(=O)N1)C(F)C2 (single isomer, unassigned) [Compound K-1b] |
| ≤ 10 | ≤ 10 |  | COc1nc(-c2cccc(-c3cccc(NC(=O)c4cn(C)c(=O)n(C)c4=O)c3C)c2Cl)cc2c1[C@@H](NC[C@@H]1CCC(=O)N1)CC2 [Compound A-2] |
